This note sets out measurements from US10000454B2, “Antidiabetic tricyclic compounds” (Merck Sharp & Dohme Corp., priority 2014, dated 2018).

Assay [1] deals with T1, Human GPR40 (Homo sapiens, UniProt O14842). The experiment in a line: FLIPR assay, agonist-induced calcium mobilization. It is filed as cell-based. Further details: expressed in transfected cells. The note with it: GPR40/CHO NFAT BLA cells. How it is done:
(§1) Human and mouse GPR40 stable cell-lines were generated in CHO cells stably expressing NFAT BLA (Beta-lactamase). A human GPR40 stable cell-line was generated in HER cells stably expressing the aequorin expressing reporter. The expression plasmids were transfected using lipofectamine (Life Technologies) following manufacturer's instructions. Stable cell-lines were generated following drug selection.
FLIPR (Fluorimetric Imaging Plate Reader, Molecular Devices) assays were performed to measure agonist-induced calcium mobilization of the stable clones. For the FLIPR assay, one day before assay, GPR40/CHO NFAT BLA cells were seeded into black-wall-clear-bottom 384-well plates (Costar) at 1.4×10e4 cells/20 μL medium/well. The cells were incubated with 20 μl/well of the assay buffer (HMS, 0.1% BSA, 20 mM HEPES, 2.5 mM probenecid, pH 7.4) containing 8 μM fluo-4, AM, 0.08% pluronic acid at room temperature for 100 minutes. Fluorescence output was measured using FLIPR. Compounds were dissolved in DMSO and diluted to desired concentrations with assay buffer. 13.3 μL/well of compound solution was added.
For orientation: A change in cytosolic calcium serves as a functional read-out for many receptors and channels.

For assay [2], the target named is T1, Human GPR40. The assay can be described thus: Inositol Phosphate Turnover (IP1) Assay. The assay is classed as cell-based. Further details: expressed in transfected cells; host or cells: HEK cells (stably expressing the aequorin reporter). The settings on record: HEK cells stably expressing human GPR40, CisBio IP-One kit. How it is done:
as §1
The assay is performed in 384-well format. HEK cells stably expressing human GPR40 are plated at 15,000 cells per well in growth medium (DMEM/10% fetal calf serum). Cell plates are then incubated 16 hours at 37 degrees in a 5% CO2 incubator.
Measurement of Inositol Phosphate Turnover (IP1) is performed using the CisBio IP-One kit (Part number 62IPAPEB). After the 16 hour incubation, the cells are washed with HEPES buffer and 10 ul of stimulation buffer (prepared as described in the kit) is added to each well. In a separate plate, compounds are diluted in DMSO (400-fold over the final concentration in the assay well) and 25 nl is acoustically transferred to the appropriate well in the assay cell plate. The plates are then incubated for 60 minutes at 37 degrees. 10 ul of detection buffer (also prepared as described in the IP-One kit) is added to each well and the plates are incubated for 60 minutes in the dark. The plates are then read in a Perkin Elmer EnVision or equivalent reader able to measure FRET. Fluorescent ratio of emission at 665 and 620 nm is then converted to IP1 concentration by back calculating from an IP1 standard curve prepared at the time of the assay.

T1 sequence (O14842 whole entry): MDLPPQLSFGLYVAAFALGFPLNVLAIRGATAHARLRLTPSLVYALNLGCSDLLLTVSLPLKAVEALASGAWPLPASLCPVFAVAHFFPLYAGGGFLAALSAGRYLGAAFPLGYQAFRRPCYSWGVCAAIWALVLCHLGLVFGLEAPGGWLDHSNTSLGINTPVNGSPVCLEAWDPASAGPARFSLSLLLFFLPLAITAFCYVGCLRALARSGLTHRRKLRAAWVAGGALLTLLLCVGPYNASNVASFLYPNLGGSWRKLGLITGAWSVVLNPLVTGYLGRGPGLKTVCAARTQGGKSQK

Regarding `CC1(C)CC(c2ccccc2C(F)(F)F)c2cc(COc3cc4c(cn3)[C@H]3[C@@H](C4)[C@@H]3C(=O)O)c(F)cc21` (single isomer, unassigned) [Example 22], the EC50 (in general, the concentration that produces a half-maximal response) on Human GPR40 [1] worked out at 11.9 nM; on Human GPR40 [2] it was 12.5 nM.
The matching figures for `CC1(C)CC(c2ccccc2C(F)(F)F)c2cc(COc3cc4c(cn3)[C@H]3[C@@H](C4)[C@@H]3C(=O)O)c(F)cc21` (single isomer, unassigned) [Example 23]: 19.9 nM and 16.6 nM.
In the case of `O=C(O)[C@H]1[C@@H]2Cc3cc(OCc4ccc5c(c4)C(c4ccccc4C(F)(F)F)CCC5)ncc3[C@@H]21` (single isomer, unassigned) [Example 42], the EC50 came out at 17.6 nM at Human GPR40 [1] and 9.87 nM at Human GPR40 [2].
The matching figures for `O=C(O)[C@H]1[C@@H]2Cc3cc(OCc4cc5c(cc4F)C(F)(F)CC5c4ccccc4C(F)(F)F)ncc3[C@@H]21` (single isomer, unassigned) [Example 69]: 1.51 nM and 8.85 nM.
Regarding `O=C(O)[C@H]1[C@@H]2Cc3cc(OCc4cc5c(cc4F)C(F)(F)CC5c4ccccc4C(F)(F)F)ncc3[C@@H]21` (single isomer, unassigned) [Example 70], the values for the EC50 at Human GPR40 [1] and at Human GPR40 [2] were 5.99 nM and 15.8 nM, respectively.
In the case of `CC1(C)CNC(c2ccccc2C(F)(F)F)c2cc(COc3cc4c(cn3)[C@H]3[C@@H](C4)[C@@H]3C(=O)O)c(F)cc21` (single isomer, unassigned) [Example 72], the half-maximal effective concentration (EC50) turned out to be 5.25 nM at Human GPR40 [1] and 5.13 nM on Human GPR40 [2].
Consider `O=C(O)[C@H]1[C@@H]2Cc3cc(OCc4ccc5c(c4)C(c4ccccc4C(F)(F)F)CC54CC4)ncc3[C@@H]21` (stereo partly drawn) [Example 1, (5aR,6S,6aS)-3-((3′-(2-(trifluoromethyl)phenyl)-2′,3′-dihydrospiro[cyclopropane-1,1′-inden]-5′-yl)methoxy)-5,5a,6,6a-tetrahydrocyclopropa[4,5]cyclopenta[1,2-c]pyridine-6-carboxylic acid], for which the EC50 stood at 32.6 nM at Human GPR40 [1] and 11.4 nM on Human GPR40 [2].
The matching figures for `O=C1CC(c2ccccc2C(F)(F)F)c2cc(COc3cc4c(cn3)[C@H]3[C@@H](C4)[C@@H]3C(=O)O)ccc21` (stereo partly drawn) [Example 2, (5aR,6S,6aS)-3-((1-oxo-3-(2-(trifluoromethyl)-phenyl)-2,3-dihydro-1H-inden-5-yl)methoxy)-5,5a,6,6a-tetrahydro-cyclopropa[4,5]cyclopenta [1,2-c]pyridine-6-carboxylic acid]: 50.5 nM and 47.4 nM.
On to `CC1(C)CC(c2ccccc2C(F)(F)F)c2cc(COc3cc4c(cn3)[C@H]3[C@@H](C4)[C@@H]3C(=O)O)ccc21` (stereo partly drawn) [Example 3, (5aR,6S,6aS)-3-((1,1-dimethyl-3-(2-(trifluoromethyl)phenyl)-2,3-dihydro-1H-inden-5-yl)methoxy)-5,5a,6,6a-tetrahydrocyclopropa[4,5]cyclopenta[1,2-c]pyridine-6-carboxylic acid], for which the figures for the EC50 at Human GPR40 [1] and at Human GPR40 [2] were 9.28 nM and 769 nM, respectively.
The like results for `CC1(C)C=C(c2ccccc2C(F)(F)F)c2cc(COc3cc4c(cn3)[C@H]3[C@@H](C4)[C@@H]3C(=O)O)ccc21` [Example 4] were, in that order, 13.7 nM and 18 nM.
The like results for `CC1CC(c2ccccc2C(F)(F)F)c2cc(COc3cc4c(cn3)[C@H]3[C@@H](C4)[C@@H]3C(=O)O)ccc21` (stereo partly drawn) [Example 5, (5aR,6S,6aS)-3-((1-methyl-3-(2-(trifluoromethyl)phenyl)-2,3-dihydro-1H-inden-5-yl)methoxy)-5,5a,6,6a-tetrahydrocyclopropa[4,5]cyclopenta[1,2-c]pyridine-6-carboxylic acid] were, in that order, 20.8 nM and 21.6 nM.
The like results for `O=C(O)[C@H]1[C@@H]2Cc3cc(OCc4ccc5c(c4)C(c4ccccc4C(F)(F)F)CC54CCC4)ncc3[C@@H]21` (stereo partly drawn) [Example 6, (5aR,6S,6aS)-3-((3′-(2-(trifluoromethyl)phenyl)-2′,3′-dihydrospiro[cyclobutane-1,1′-inden]-5′-yl)methoxy)-5,5a,6,6a-tetrahydrocyclopropa[4,5]cyclopenta[1,2-c]pyridine-6-carboxylic acid] were, in that order, 22.9 nM and 22.6 nM.
Turning to `O=C(O)[C@H]1[C@@H]2Cc3cc(OCc4ccc5c(c4)C(c4ccccc4C(F)(F)F)CC54COC4)ncc3[C@@H]21` (stereo partly drawn) [Example 7, (5aR,6S,6aS)-3-((3-(2-(trifluoromethyl)phenyl)-2,3-dihydrospiro[indene-1,3′-oxetan]-5-yl)methoxy)-5,5a,6,6a-tetrahydrocyclopropa[4,5]cyclopenta[1,2-c]pyridine-6-carboxylic acid], the values for the EC50 on Human GPR40 [1] and on Human GPR40 [2] were 32.9 nM and 35.3 nM, respectively.
The matching figures for `CC1(C)OCC2(CO1)CC(c1ccccc1C(F)(F)F)c1cc(COc3cc4c(cn3)[C@H]3[C@@H](C4)[C@@H]3C(=O)O)ccc12` (stereo partly drawn) [Example 8, (5aR,6S,6aS)-3-((2,2-dimethyl-3′-(2-(trifluoromethyl)phenyl)-2′,3′-dihydrospiro[[1,3]dioxane-5,1′-inden]-5′-yl)methoxy)-5,5a,6,6a-tetrahydrocyclopropa[4,5]cyclopenta[1,2-c]pyridine-6-carboxylic acid]: 12.3 nM and 21.1 nM.
The like results for `CC1(C)CC(c2ccccc2)c2cc(COc3cc4c(cn3)[C@H]3[C@@H](C4)[C@@H]3C(=O)O)ccc21` (stereo partly drawn) [Example 9, (5aR,6S,6aS)-3-((1,1-dimethyl-3-phenyl-2,3-dihydro-1H-inden-5-yl)methoxy)-5,5a,6,6a-tetrahydrocyclopropa[4,5]cyclopenta[1,2-c]pyridine-6-carboxylic acid] were, in that order, 16.9 nM and 22.4 nM.
The like results for `CC1(C)CC(c2c(F)cccc2F)c2cc(COc3cc4c(cn3)[C@H]3[C@@H](C4)[C@@H]3C(=O)O)ccc21` (stereo partly drawn) [Example 10, (5aR,6S,6aS)-3-((3-(2,6-difluorophenyl)-1,1-dimethyl-2,3-dihydro-1H-inden-5-yl)methoxy)-5,5a,6,6a-tetrahydro-cyclopropa[4,5]cyclopenta [1,2-c]pyridine-6-carboxylic acid] were, in that order, 4.9 nM and 38.9 nM.
Regarding `CC1(C)CC(c2ccccc2Cl)c2cc(COc3cc4c(cn3)[C@H]3[C@@H](C4)[C@@H]3C(=O)O)ccc21` (stereo partly drawn) [Example 11, (5aR,6S,6aS)-3-((3-(2-chlorophenyl)-1,1-dimethyl-2,3-dihydro-1H-inden-5-yl)methoxy)-5,5a,6,6a-tetrahydro-cyclopropa[4,5]cyclopenta [1,2-c]pyridine-6-carboxylic acid], the half-maximal effective concentration (EC50) turned out to be 17.8 nM at Human GPR40 [1] and 35.1 nM on Human GPR40 [2].
Turning to `CC1(C)CC(c2ccccc2S(C)(=O)=O)c2cc(COc3cc4c(cn3)[C@H]3[C@@H](C4)[C@@H]3C(=O)O)ccc21` (stereo partly drawn) [Example 13, (5aR,6S,6aS)-3-((1,1-dimethyl-3-(2-(methyl-sulfonyl)phenyl)-2,3-dihydro-1H-inden-5-yl)methoxy)-5,5a,6,6a-tetrahydrocyclopropa[4,5] cyclopenta[1,2-c]pyridine-6-carboxylic acid], the values for the EC50 at Human GPR40 [1] and at Human GPR40 [2] were 22.6 nM and 40.6 nM, respectively.
For `COc1ncccc1C1CC(C)(C)c2ccc(COc3cc4c(cn3)[C@H]3[C@@H](C4)[C@@H]3C(=O)O)cc21` (stereo partly drawn) [Example 14, (5aR,6S,6aS)-3-((3-(2-methoxypyridin-3-yl)-1,1-dimethyl-2,3-dihydro-1H-inden-5-yl)methoxy)-5,5a,6,6a-tetrahydro-cyclopropa[4,5]cyclopenta [1,2-c]pyridine-6-carboxylic acid], the EC50 was 11.6 nM at Human GPR40 [1] and 21.8 nM at Human GPR40 [2].
The like results for `COc1nccc(C)c1C1CC(C)(C)c2ccc(COc3cc4c(cn3)[C@H]3[C@@H](C4)[C@@H]3C(=O)O)cc21` (stereo partly drawn) [Example 15, (5aR,6S,6aS)-3-((3-(2-methoxy-4-methylpyridin-3-yl)-1,1-dimethyl-2,3-dihydro-1H-inden-5-yl)methoxy)-5,5a,6,6a-tetrahydrocyclopropa[4,5] cyclopenta[1,2-c]pyridine-6-carboxylic acid] were, in that order, 8.6 nM and 7.77 nM.
The like results for `Cn1cnc2cccc(C3CC(C)(C)c4ccc(COc5cc6c(cn5)[C@H]5[C@@H](C6)[C@@H]5C(=O)O)cc43)c21` (stereo partly drawn) [Example 16, (5aR,6S,6aS)-3-((1,1-dimethyl-3-(1-methyl-1H-benzo[d]imidazol-7-yl)-2,3-dihydro-1H-inden-5-yl)methoxy)-5,5a,6,6a-tetrahydrocyclopropa[4,5] cyclopenta[1,2-c]pyridine-6-carboxylic acid] were, in that order, 7.29 nM and 27.7 nM.
